Assays:
[1] = Solubility of fluorescent whitening agent in distilled water (saturated solution); format: physicochemical; settings: ambient temperature (about 22° C.), grams FWA dissolved in 100 g saturated FWA solution
Experimental: The solubility of the fluorescent whitening agents was determined as follows: a dry powder of fluorescent whitening agent was added to 50 ml of distilled water until the saturation point was reached. The thus obtained saturated solution was filtered, dried and the dried residue was weighted.
The indicated percentages are based on the amount of grams of fluorescent whitening agent dissolved in 100 g of the corresponding saturated FWA solution.

[2] = Storage stability of approximately 20% aqueous solution; format: physicochemical; settings: approximately 20% solution, ambient temperature and 4° C., without stirring
Experimental: The stability behavior was studied by storing an approximately 20% solution of FWA 1 and FWA 2, respectively, at ambient temperature and at 4° C., each without stirring. The aqueous brightener preparations have a shelf-life of more than 30 days both at ambient and low temperature.

Structure (SMILES) | solubility [1] | crystalline precipitates on storage [2]
O=C([O-])c1ccc(Nc2nc(Nc3ccc(/C=C/c4ccc(Nc5nc(Nc6ccc(C(=O)[O-])cc6)nc(N(CCO)CCO)n5)cc4S(=O)(=O)[O-])c(S(=O)(=O)[O-])c3)nc(N(CCO)CCO)n2)cc1.[Na+].[Na+].[Na+].[Na+] [FWA 1] | 27.8% | no crystalline precipitates
CC(O)CN(CC(C)O)c1nc(Nc2ccc(C(=O)[O-])cc2)nc(Nc2ccc(/C=C/c3ccc(Nc4nc(Nc5ccc(C(=O)[O-])cc5)nc(N(CC(C)O)CC(C)O)n4)cc3S(=O)(=O)[O-])c(S(=O)(=O)[O-])c2)n1.[Na+].[Na+].[Na+].[Na+] (stereo not shown) [FWA 2] | 24.2% | no crystalline precipitates
